Test results as given in PubChem BioAssay AID624167 (Sanford-Burnham Center for Chemical Genomics, 2012).
Activity calls are given as the source filed them.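 Rule for the calls: active = mean IC50 for reducing PEG3 promoter reporter signal at or below a set limit, with IC50 above the limit in both counter screens; inactive = the rest, including counter screen hits.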

Legend:
[1] = Peg3 promoter luciferase inhibitors, potency, dose response, cell-based, HeLa, CREF/GAPDH counter-screen panel (AID 624167); details: CREF/GAPDH counter-screens; GAPDH; mean of runs
PEG-3 [2] = target: PEG-3 (UniProt Q6IN02); test: as above; details: HeLa PEG-Prom luciferase reporter, overnight, CREF/GAPDH counter-screens, mean of runs
PEG-3 (UniProt Q6IN02), sequence (Q6IN02 whole entry, looked up): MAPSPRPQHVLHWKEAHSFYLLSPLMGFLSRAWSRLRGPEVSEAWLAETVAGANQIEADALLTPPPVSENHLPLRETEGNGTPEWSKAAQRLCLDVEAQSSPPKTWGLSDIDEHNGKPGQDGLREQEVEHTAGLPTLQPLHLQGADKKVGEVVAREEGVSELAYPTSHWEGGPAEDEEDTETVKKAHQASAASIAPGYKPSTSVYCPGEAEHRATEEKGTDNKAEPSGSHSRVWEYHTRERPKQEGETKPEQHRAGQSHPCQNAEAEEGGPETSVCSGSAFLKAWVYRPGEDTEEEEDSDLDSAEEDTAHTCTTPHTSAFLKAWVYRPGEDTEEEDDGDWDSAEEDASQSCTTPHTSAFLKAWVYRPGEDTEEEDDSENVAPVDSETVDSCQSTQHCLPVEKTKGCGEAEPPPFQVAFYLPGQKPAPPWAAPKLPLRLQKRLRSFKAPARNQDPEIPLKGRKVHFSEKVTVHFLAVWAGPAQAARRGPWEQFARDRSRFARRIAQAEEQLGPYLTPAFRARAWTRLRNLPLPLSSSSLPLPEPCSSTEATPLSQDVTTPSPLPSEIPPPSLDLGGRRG

PEG-3 [3] = test: as above; details: HeLa PEG-Prom luciferase reporter, overnight, CREF/GAPDH counter-screens
Rat fibroblasts (CREF) = test: as above; details: CREF/GAPDH counter-screens
GAPDH = test: as above; details: CREF/GAPDH counter-screens
[4] = run 1, dose range 1, individual replicate IC50 per panel
[5] = run 2, dose range 1, individual replicate IC50 per panel

Row | IC50 [1] | IC50 (PEG-3 [2]) | Structure (SMILES) | IC50 (PEG-3 [3]; [4]) [µM] | IC50 (PEG-3 [3]; [5]) [µM] | IC50 (Rat fibroblasts (CREF); mean of runs) | IC50 (Rat fibroblasts (CREF); [4]) [µM] | IC50 (Rat fibroblasts (CREF); [5]) [µM] | IC50 (GAPDH; [4]) [µM] | IC50 (GAPDH; [5]) [µM]
1 | > 100 µM (inactive) | 9.2 µM | O=C(N/N=C/c1cc([N+](=O)[O-])ccc1O)c1ccc(COc2ccc3c(c2)CCC3)o1 | 7.48 | 10.9 | 76.8 µM (inactive) | > 100 | 53.7 | > 100 | > 100
2 | 11.3 µM | 9.01 µM | Cc1cc(C(=O)Nc2cccc(C(=O)O)c2)oc1C | 6.77 | 11.2 | > 100 µM (inactive) | > 100 | > 100 | 6.56 | 16
3 | inactive | 3.86 µM | COc1ccc(/C=C2\SC(=S)N(CCCC(=O)NNC(=O)c3ccccc3O)C2=O)cc1 | 6.31 | 1.41 | 71.6 µM (inactive) | > 100 | 43.3 | 21.9 | > 100
4 | 0.974 µM | 0.27 µM | COc1ccc(Nc2ncnc3ccc(Br)cc23)c(OC)c1 | 0.293 | 0.246 | > 100 µM (inactive) | > 100 | > 100 | 0.864 | 1.08
5 | 12.8 µM | 1.9 µM | Cc1ccc(/C=C2\SC(=S)N(CCCC(=O)Nc3ccccn3)C2=O)cc1 | 1.33 | 2.48 | > 100 µM (inactive) | > 100 | > 100 | 17.7 | 7.78
6 | 28.9 µM | 7.42 µM | CS(=O)(=O)c1ccc(-c2sc3ccccc3c2C#CCCO)cc1 | 14.3 | 0.572 | 32.3 µM | 27.7 | 36.9 | 30.2 | 27.7
7 | > 100 µM (inactive) | 0.922 µM | C/C(=N\NC(=O)c1c(C)nc2ccccn12)c1ccc(O)cc1O | 1.31 | 0.534 | 62.8 µM (inactive) | > 100 | 25.5 | > 100 | > 100
8 | inactive | 5.13 µM | O=C(CCn1cnc(-c2ccccc2)c1-c1ccccc1)N/N=C/c1ccccc1O | 5.32 | 4.93 | 63.2 µM (inactive) | > 100 | 26.4 | 49.7 | > 100
9 | 12.1 µM | 8.22 µM | CN(C)S(=O)(=O)c1ccc(-c2csc(N/N=C/c3ccc(O)cc3)n2)cc1 | 8.68 | 7.77 | 9.81 µM | 9.26 | 10.4 | 11.7 | 12.5
10 | > 100 µM (inactive) | inactive | O=C(CNC(=O)C(c1ccccc1)c1ccccc1)N/N=C/c1ccc(O)cc1O | 3.59 | > 100 | > 100 µM (inactive) | > 100 | > 100 | > 100 | > 100
11 | 6.32 µM | 7.2 µM | CCc1ccn2cc(-c3ccc4c(c3)OCO4)nc2c1 | 1.97 | 12.4 | 50.4 µM (inactive) | 0.748 | > 100 | 3.75 | 8.89
12 | inactive | 10.2 µM | CCCCCCN1C=C/C(=C\C=C(C#N)C#N)c2ccccc21 | 13.4 | 7.03 | 55.3 µM (inactive) | > 100 | 10.7 | 1.24 | > 100
13 | inactive | 8.05 µM | COc1ccc(N(C(=O)CCl)C(C(=O)NC2CCCCC2)c2cccnc2)cc1 (centres undefined) | 6.62 | 9.49 | 2.68 µM | 2.81 | 2.56 | 40.4 | 39.6
14 | 14.6 µM | 5.47 µM | CCSc1nc2ccccc2n1C(=O)/C=C\c1ccc(OC)c(OC)c1 | 4.86 | 6.08 | 72.8 µM (inactive) | 45.7 | > 100 | 14.2 | 15
15 | 23.6 µM | 6.53 µM | CN(C)c1c([N+](=O)[O-])cc(N2C(=O)C=CC2=O)cc1[N+](=O)[O-] | 7.49 | 5.58 | 14 µM | 10.7 | 17.3 | 24.6 | 22.7
16 | inactive | 5.91 µM | CN1C/C(=C/c2ccccc2[N+](=O)[O-])C(=O)/C(=C\c2ccccc2[N+](=O)[O-])C1 | 5.67 | 6.14 | 27.4 µM | 30 | 24.9 | > 100 | 79.4
17 | 20.5 µM | 3.75 µM | CN1CCC2(CC1)N=C(c1ccc(F)cc1)C(=S)N2C(=O)c1ccc(C(C)(C)C)cc1 | 6.48 | 1.01 | 36.5 µM | 28.6 | 44.5 | 20.4 | 20.6
18 | 11.2 µM | 9.36 µM | O=c1c2ccccc2sc2nc(CCl)nn12 | 9.23 | 9.49 | > 100 µM (inactive) | > 100 | > 100 | 11.9 | 10.6
19 | inactive | inactive | CCC(=O)NC(c1ccc(C)cc1)c1ccc2cccnc2c1O (centres undefined) | 1.31 | > 100 | > 100 µM (inactive) | > 100 | > 100 | 46.6 | > 100
20 | 14.1 µM | 2.67 µM | NS(=O)(=O)c1ccc(CCNc2nn3c(-c4ccc(F)c(Cl)c4)cnc3s2)cc1 | 2.86 | 2.47 | > 100 µM (inactive) | > 100 | > 100 | 12.9 | 15.3
21 | inactive | 9.67 µM | O=C1C=CC(=O)N1c1ccc(-c2nc3ccccc3o2)cc1 | 11.3 | 8.02 | 12.8 µM | 5.55 | 20 | 41.6 | 35.3
22 | > 100 µM (inactive) | inactive | COc1cc(/C=C2\SC(=Nc3ccccc3OC)NC2=O)ccc1O | 4.7 | > 100 | > 100 µM (inactive) | > 100 | > 100 | > 100 | > 100
23 | > 100 µM (inactive) | 7.91 µM | Cc1cccc(OCC(=O)NCC(=O)N/N=C/c2cc(Br)cc(Br)c2O)c1 | 9.95 | 5.87 | 47.1 µM | 42.2 | 52 | > 100 | > 100
24 | inactive | 4.44 µM | COc1cc(OC)c2cc(C(=O)N/N=C/c3ccccc3O)[nH]c2c1 | 4.95 | 3.93 | 28.8 µM | 24.8 | 32.9 | 75.1 | 51.5
25 | inactive | 9.2 µM | N=c1n(CC(=O)c2ccc([N+](=O)[O-])cc2)c2ccccc2n1Cc1ccc(Cl)cc1 | 9.65 | 8.76 | 27 µM | 26.4 | 27.6 | > 80 | 33.3
26 | > 100 µM (inactive) | 3.1 µM | COc1cccc(OC)c1C(=O)Nc1cc(C)nn1-c1nc2ccccc2[nH]1 | 2.08 | 4.13 | > 100 µM (inactive) | > 100 | > 100 | > 100 | > 100
27 | inactive | inactive | O=C(Nc1ccccc1)c1nc[nH]c1C(=O)NCCCCCCNC(=O)c1[nH]cnc1C(=O)Nc1ccccc1 | 2.4 | > 100 | > 100 µM (inactive) | > 100 | > 100 | > 100 | 16
28 | > 100 µM (inactive) | 3.26 µM | C/C(=N\NC(=O)c1cc(C2CC2)nc2ccccc12)c1ccc(O)cc1O | 3.07 | 3.45 | 60.7 µM (inactive) | 21.5 | > 100 | > 100 | > 100
29 | > 100 µM (inactive) | 0.754 µM | COc1cccc(/C=N/NC(=O)c2c(C)nc3ccc(Cl)cn23)c1O | 0.994 | 0.513 | 69.6 µM (inactive) | > 100 | 39.3 | > 100 | > 100

Row | Structure (SMILES) | IC50 [1] | IC50 (PEG-3 [2]) | IC50 (PEG-3 [3]; [4]) [µM] | IC50 (PEG-3 [3]; [5]) [µM] | IC50 (Rat fibroblasts (CREF); mean of runs) | IC50 (Rat fibroblasts (CREF); [4]) [µM] | IC50 (Rat fibroblasts (CREF); [5]) [µM] | IC50 (GAPDH; [4]) [µM] | IC50 (GAPDH; [5]) [µM]
30 | CC(=O)OC1(C)CC(C)C(=O)C(C(O)CC2CC(=O)NC(=O)C2)C1 (centres undefined) | < 0.2 µM | 0.303 µM | 0.221 | 0.385 | < 0.2 µM | < 0.2 | < 0.2 | < 0.2 | < 0.2
31 | CCC(c1nnnn1-c1ccc2c(c1)OCCO2)N1CCC(n2c(=O)[nH]c3ccccc32)CC1 (centres undefined) | 10.8 µM | 7.33 µM | 4.46 | 10.2 | > 100 µM (inactive) | > 100 | > 100 | 9.08 | 12.6
